The record followed here is patent US7875629B2, “Quinolinone compounds as 5-HT4 receptor agonists” (Theravance, Inc., priority 2005, dated 2011).

A value given as a limit tells only on which side of the number the result lay.

What is called inhibition is the percentage by which the read-out fell short of the control. What is called bioavailability is the share of a dose that reaches the circulation, judged against a reference dose that is usually intravenous. One may read the AUC(0-t) as exposure summed from dosing to a finite time, without extrapolation to infinity. By Cmax is commonly meant the peak of the concentration-time curve.

Data set [1] has as its target T1, hERG cardiac potassium channel (Homo sapiens, UniProt Q12809).
T1 construct: host or cells: CHO-K1 cells stably transfected with HERG cDNA
The experiment in a line: in vitro. The format is cell-based. Particulars: pH 7.4. How it is done: In Vitro Voltage Clamp Assay of Inhibition of Potassium Ion Current in Whole Cells Expressing the hERG Cardiac Potassium Channel
CHO-K^1 cells stably transfected with HERG cDNA were obtained from Gail Robertson at the University of Wisconsin. Cells were held in cryogenic storage until needed. Cells were expanded and passaged in Dulbecco's Modified Eagles Medium/F12 supplemented with 10% fetal bovine serum and 200 μg/mL geneticin. Cells were seeded onto poly-D-lysine (100 μg/mL) coated glass coverslips, in 35 mm^2 dishes (containing 2 mL medium) at a density that enabled isolated cells to be selected for whole cell voltage-clamp studies. The dishes were maintained in a humidified, 5% CO2 environment at 37° C.
Extracellular solution was prepared at least every 7 days and stored at 4° C. when not in use. […]
The coverslips on which the cells were seeded were transferred to a recording chamber and perfused continuously. […] Peak current amplitudes during the repolarization phase were determined using pClamp software. […]
Peak current amplitudes during the repolarization phase were determined using pCLAMP software. […] The normalized current means and standard errors for each condition were calculated and plotted versus the time course of the experiment. […]

The nature of a further data set: in vivo. Particulars: male, Sprague-Dawley, rat.

T1 sequence (Q12809 whole entry): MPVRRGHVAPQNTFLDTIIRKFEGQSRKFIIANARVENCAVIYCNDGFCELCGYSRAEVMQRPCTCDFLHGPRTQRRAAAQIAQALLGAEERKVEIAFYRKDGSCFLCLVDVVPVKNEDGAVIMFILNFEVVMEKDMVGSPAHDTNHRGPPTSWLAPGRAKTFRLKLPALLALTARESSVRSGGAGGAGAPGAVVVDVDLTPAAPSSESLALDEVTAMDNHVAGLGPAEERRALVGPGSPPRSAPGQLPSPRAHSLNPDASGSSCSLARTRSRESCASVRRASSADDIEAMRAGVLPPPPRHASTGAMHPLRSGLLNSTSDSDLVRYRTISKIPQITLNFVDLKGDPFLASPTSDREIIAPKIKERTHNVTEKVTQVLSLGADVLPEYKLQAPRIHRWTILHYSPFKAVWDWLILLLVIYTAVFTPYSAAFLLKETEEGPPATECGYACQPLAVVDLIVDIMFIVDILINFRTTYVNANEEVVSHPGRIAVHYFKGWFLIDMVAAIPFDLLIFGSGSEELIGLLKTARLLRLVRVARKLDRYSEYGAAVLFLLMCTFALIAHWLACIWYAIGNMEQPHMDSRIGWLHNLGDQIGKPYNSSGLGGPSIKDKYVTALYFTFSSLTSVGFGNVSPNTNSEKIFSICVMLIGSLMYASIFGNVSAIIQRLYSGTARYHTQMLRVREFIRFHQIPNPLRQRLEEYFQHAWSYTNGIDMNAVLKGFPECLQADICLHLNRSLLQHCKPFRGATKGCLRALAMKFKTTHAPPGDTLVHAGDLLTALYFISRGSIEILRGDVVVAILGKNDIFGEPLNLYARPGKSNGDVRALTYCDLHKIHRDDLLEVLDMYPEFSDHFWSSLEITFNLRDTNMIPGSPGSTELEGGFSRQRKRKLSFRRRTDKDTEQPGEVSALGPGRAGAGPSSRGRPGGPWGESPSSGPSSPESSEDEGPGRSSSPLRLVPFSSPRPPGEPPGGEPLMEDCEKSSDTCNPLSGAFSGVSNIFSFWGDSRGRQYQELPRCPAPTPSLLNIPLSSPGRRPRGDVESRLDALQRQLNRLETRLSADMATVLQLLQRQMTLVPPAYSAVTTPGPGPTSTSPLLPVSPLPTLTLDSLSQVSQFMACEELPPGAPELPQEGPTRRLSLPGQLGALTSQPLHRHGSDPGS
Experimental for in vivo: Pharmacokinetic Study in the Rat
Male Sprague-Dawley rats (CD strain, Charles River Laboratories, Wilmington, Mass.) were dosed with test compounds via intravenous administration (IV) at a dose of 2.5 mg/kg or by oral gavage (PO) at a dose of 5 mg/kg. The dosing volume was 1 mL/kg for IV and 2 mL/kg for PO administration. Serial blood samples were collected from animals pre-dose, and at 2 (IV only), 5, 15, and 30 min, and at 1, 2, 4, 8, and 24 hours post-dose.
Standard pharmacokinetic parameters were assessed by non-compartmental analysis (Model 201 for IV and Model 200 for PO) using WinNonlin (Version 4.0.1, Pharsight, Mountain View, Calif.). The maximum in the curve of test compound concentration in blood plasma vs. time is denoted Cmax. The area under the concentration vs. time curve from the time of dosing to the last measurable concentration (AUC(0-t)) was calculated by the linear trapezoidal rule. Oral bioavailability (F(%)), i.e. the dose-normalized ratio of AUC(0-t) for PO administration to AUC(0-t) for IV administration, was calculated as: F(%)=AUCPO/AUCIV×DoseIV/DosePO×100%

As for `CC(C)n1c(=O)c(C(=O)NC2CC3CCC(C2)N3CCCS(=O)(=O)N2CCN(C)CC2)cc2ccccc21` [Example 17, 1-isopropyl-2-oxo-1,2-dihydroquinoline-3-carboxylic acid {(1S,3R,5R)-8-[3-(4-methylpiperazine-1-sulfonyl)propyl]-8-azabicyclo[3.2.1]oct-3-yl}amide], the inhibition at 5 min, 3 µM in data set [1] is less than 15%. This molecule also showed a bioavailability in the data set “in vivo” of roughly 20%. Also, in “in vivo” (po, 5 mg/kg), the exposure AUC(0-t) turned out to be 450 ng·h/mL and the Cmax worked out at 60 ng/mL.
